Consider 7 compounds from US7300932B2, “Pyrrolo[1,2-b]pyridazine derivatives” (Japan Tobacco Inc., priority 2003, dated 2007).

In general, IC50 refers to the concentration that gives 50% inhibition. Low values mean inhibition by little substance, high ones a need for much substance.

The target of the assay is T1, human DGAT1 (Homo sapiens, UniProt O75907).
T1 construct: made in house; host or cells: insect cells (e.g., sf9, sf21, or High Five), Bac-to-Bac baculovirus; total cell membranes
T1 sequence (O75907 1-488): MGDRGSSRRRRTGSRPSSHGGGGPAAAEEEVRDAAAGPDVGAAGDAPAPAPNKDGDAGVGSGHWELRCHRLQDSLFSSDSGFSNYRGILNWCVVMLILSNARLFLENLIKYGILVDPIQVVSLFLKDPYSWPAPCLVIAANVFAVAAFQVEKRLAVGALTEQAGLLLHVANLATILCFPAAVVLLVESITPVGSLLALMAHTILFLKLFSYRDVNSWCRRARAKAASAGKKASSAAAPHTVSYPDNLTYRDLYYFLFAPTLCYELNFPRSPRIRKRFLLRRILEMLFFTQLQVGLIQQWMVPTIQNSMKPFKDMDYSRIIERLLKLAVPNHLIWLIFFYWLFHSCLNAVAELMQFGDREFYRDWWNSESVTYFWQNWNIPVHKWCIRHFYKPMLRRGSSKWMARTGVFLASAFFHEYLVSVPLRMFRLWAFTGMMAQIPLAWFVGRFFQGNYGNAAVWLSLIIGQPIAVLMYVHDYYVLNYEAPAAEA
Description: DGAT Scintillation Proximity Assay (SPA) with membranes of insect cells expressing human flagtag DGAT1. As to conditions: DGAT inhibition. In kind it is biochemical. On the procedure:
In such an assay human DGAT1 is cloned from a human liver cDNA library. PCR is used to add a restriction site and flag epitope at the most 5′ end and a restriction site at the 3′ end of the sequence. Thereafter, human flagtag (FT) DGAT1 baculovirus may be generated using a Bac-to-Bac Baculovirus Expression System® (Invitrogen). Insect cells (e.g., sf9, sf21, or High Five) are infected for 24 to 72 h and collected by centrifugation. Cell pellets are resuspended in homogenization buffer and lysed using a homogenization device, such as a Microfluidizer. Total cell membranes are collected by ultracentrifugation at 45,000 rpm for 1 h.
A small aliquot (0.2 μg/well) of membrane is incubated with 10 μM compound or mercuric chloride (as positive control for inhibition) in the presence of enzyme substrate, dioleoyl glycerol (200 μM) in 384 well plates, final volume 50 μL per well. […] The reaction is stopped by adding Wheat Germ Agglutinin (WGA) SPA beads (0.2 mg) in mercuric chloride. Cell membranes are allowed to couple to the beads overnight. The signal can be measured using, for example, a Chemiluminescence Image Plate Reader (CLIPR) or TopCount device.
Regarding `CCCc1c(-c2ncc(-c3ccccc3)o2)c(C(=O)OCC)c2c(-c3ccccc3)cc(N3CCOCC3)nn12` [Example 80, 2-Morpholin-4-yl-4-phenyl-6-(5-phenyl-oxazol-2-yl)-7-propyl-pyrrolo[1,2-b]pyridazine-5-carboxylic acid ethyl ester], the half-maximal inhibitory concentration (IC50) was > 500 nM.

With `CCOC(=O)c1c(C(=O)OCC)c2c(-c3ccccc3)cc(N3CCOCC3)nn2c1C` [Example 24, 7-Methyl-2-morpholin-4-yl-4-phenyl-pyrrolo[1,2-b]pyridazine-5,6-dicarboxylic acid diethyl ester], the IC50 was > 500 nM.

For `CCCc1c(-c2nnc(C)o2)c(C(=O)OCC)c2c(-c3ccccc3)cc(N3CCOCC3)nn12` [Example 78, 6-(5-Methyl-[1,3,4]oxadiazol-2-yl)-2-morpholin-4-yl-4-phenyl-7-propyl-pyrrolo[1,2-b]pyridazine-5-carboxylic acid ethyl ester], the IC50 is > 500 nM.

With `CCCc1c(C(=O)OCC)c(C(=O)OCC)c2c(-c3ccccc3)cc(N3CCC3)nn12` [Example 95, 2-Azetidin-1-yl-4-phenyl-7-propyl-pyrrolo[1,2-b]pyridazine-5,6-dicarboxylic acid diethyl ester], the concentration for half-maximal inhibition (IC50) was > 500 nM.

Consider `CCOC(=O)c1c(C(=O)OCC)c2c(-c3ccccc3)cc(N3CCOCC3)nn2c1C1CC1` [Example 8, 7-Cyclopropyl-2-morpholin-4-yl-4-phenyl-pyrrolo[1,2-b]pyridazine-5,6-dicarboxylic acid diethyl ester], for which the concentration for half-maximal inhibition (IC50) is > 500 nM.

Turning to `CCCc1c(C(=O)OCC)c(C(=O)OCC)c2c(C3CCCCC3)cc(N3CCOCC3)nn12` [Example 90, 4-Cyclohexyl-2-morpholin-4-yl-7-propyl-pyrrolo[1,2-b]pyridazine-5,6-dicarboxylic acid diethyl ester], the half-inhibitory concentration (IC50) was < 500 nM.

As for `CCCc1c(C(=O)OCC)c(C(=O)OCC)c2c(-c3ccccc3)cc(N3CCCC3)nn12` [Example 96, 4-Phenyl-7-propyl-2-pyrrolidin-1-yl-pyrrolo[1,2-b]pyridazine-5,6-dicarboxylic acid diethyl ester], the IC50 is < 500 nM.
